From patent publication US20220257597A1, “Methods of Administering Elagolix” (AbbVie Inc., priority 2021, published 2022)

Legend:
[1] = Drug interaction studies: change in pharmacokinetics of co-administered drug in the presence of elagolix; assay type: in vivo, human
Protocol: Drug interaction studies were performed with elagolix and other drugs likely to be co-administered and with drugs commonly used as probes for pharmacokinetic interactions. Tables 8 and 9 summarize the pharmacokinetic effects when elagolix was co-administered with these drugs.

[2] = Drug interactions: effects of ORIAHNN on other drugs; conditions: co-administration of ORIAHNN
[3] = Drug interactions: effects of ORILISSA on other drugs; conditions: co-administration of ORILISSA
[4] = Drug-drug interaction study: effect of multiple doses of elagolix sodium on pharmacokinetics of bupropion (CYP2B6 substrate) and OH-bupropion; conditions: for t1/2: harmonic mean; for AUCinf / AUCt / Cmax: mean; for Tmax / Metabolite to Parent AUCinf Ratio / Metabolite to Parent AUCt Ratio / Metabolite to Parent Cmax Ratio: median; for Tmax: N = 24
Protocol: Subjects: Twenty four (24) adult premenopausal women in generally good health participated in this study.
Elagolix 300 mg BID (as 300 mg immediate release tablets) was administered in the morning and evening on days 1 through 14 in period 2. […] No food was consumed for 2 hours prior to the evening doses of elagolix continuing through 2 hours after. The doses of elagolix were separated by approximately 12 hours.
Individual PK parameters (peak concentration [Cmax] and area under the concentration-time curve [AUC]) were estimated using noncompartmental methods.
Central value ratios (90% confidence intervals) for Cmax, AUC, and metabolite to parent ratios (MPRs) (day 11, period 2 vs. day 1, period 1) were calculated to assess the DDIs. Safety was evaluated through assessment of adverse events, vital signs, electrocardiogram, and clinical laboratory tests.
Adverse events (AEs) were monitored throughout the DDI study. Additional safety evaluations included monitoring of physical examinations, vital signs, electrocardiogram variables, and clinical laboratory values were assessed

[5] = ethinyl estradiol 35 mcg and triphasic norgestimate 0.18/0.215/0.25 mg once daily, elagolix 150 mg once daily, N 21
[6] = midazolam 2 mg single dose, elagolix 150 mg once daily x 13 days, N 11
[7] = midazolam 2 mg single dose, elagolix 300 mg twice daily x 11 days, N 20
[8] = bupropion 150 mg + elagolix 300 mg BID (Day 11, Period 2)
[9] = bupropion 150 mg alone (Day 1, Period 1)
[10] = bupropion + elagolix (Day 11, Period 2)
[11] = bupropion alone (Day 1, Period 1)
[12] = single 150 mg bupropion, elagolix 300 mg twice daily
[13] = norethindrone 0.35 mg once daily x 112 days, elagolix 150 mg once daily x 56 days, N 32

In the case of `C#CC1(O)CC[C@H]2[C@@H]3CCC4=CC(=O)CC[C@@H]4[C@H]3CC[C@@]21CC` (stereo partly drawn) [Norgestrel], the “Ratio (90% CI) AUC, co-administration with elagolix vs medication alone” value (“Ratio (90% CI) AUC, co-administration” below) [1, 5] is reported as 0.92 and the “Ratio (90% CI) Cmax, co-administration with elagolix vs medication alone” value (shortened to “Ratio (90% CI) Cmax, co-administration”) [1, 5] is reported as 0.89.
In the case of `Cc1ncc2n1-c1ccc(Cl)cc1C(c1ccccc1F)=NC2` [midazolam], the “Ratio (90% CI) AUC, co-administration” value [1, 6] is reported as 0.65, the “Ratio (90% CI) Cmax, co-administration” value [1, 6] is reported as 0.81 and the “Ratio (90% CI) AUC, co-administration” value [1, 7] is reported as 0.46. For the same compound, the “Ratio (90% CI) Cmax, co-administration” value [1, 7] was 0.56, the “Effect on Plasma Exposure of Concomitant Drug (direction of change in AUC)” value [2] was “↓ midazolam” and the “Effect on Plasma Exposure of Concomitant Drug (direction of change in AUC)” value [3] was “↓ midazolam”.
For `C#C[C@]1(O)CC[C@H]2[C@@H]3CCC4=CC(=NO)CC[C@@H]4[C@H]3CC[C@@]21CC` (mixture of isomers) [Norelgestromin], the “Ratio (90% CI) AUC, co-administration” value [1, 5] was 0.85 and the “Ratio (90% CI) Cmax, co-administration” value [1, 5] was 0.87.
`CC(NC(C)(C)CO)C(=O)c1cccc(Cl)c1` (stereo not drawn) [OH-Bupropion] gave a t1/2 [4, 8] of 20.5 h, an AUCinf [4, 8] of 17600 ng·h/mL and an AUCt [4, 8] of 17000 ng·h/mL. For the same compound, the Cmax [4, 8] was 429 ng/mL, the Tmax [4, 8] was 6.0 h and the t1/2 [4, 9] was 24.7 h. The AUCinf [4, 9] was 16700 ng·h/mL, the AUCt [4, 9] was 15700 ng·h/mL and the Cmax [4, 9] was 323 ng/mL. The Tmax [4, 9] was 10.0 h, the “Metabolite to Parent AUCinf Ratio” value [4, 10] was 15.9 and the “Metabolite to Parent AUCt Ratio” value [4, 10] was 15.9. For the same compound, the “Metabolite to Parent Cmax Ratio” value [4, 10] was 3.92, the “Metabolite to Parent AUCinf Ratio” value [4, 11] was 15.7 and the “Metabolite to Parent AUCt Ratio” value [4, 11] was 15.4. The “Metabolite to Parent Cmax Ratio” value [4, 11] was 3.61, the “Cmax upon co-administration with elagolix, in words” value ([4]; co-administration with elagolix) was “increased” and the “changes in metabolite to parent ratios (OH-bupropion/bupropion) of Cmax and AUC” value ([4]; elagolix 300 mg BID) was at most 12%. The “increase in Cmax upon co-administration with elagolix” value ([4]; elagolix 300 mg BID) was 32%, the “AUCinf ratio, co-administered with elagolix vs bupropion alone” value [4, 12] was “about 1.063” and the “Cmax ratio, co-administered with elagolix vs bupropion alone” value [4, 12] was “about 1.317”.
With `C#C[C@]1(O)CC[C@H]2[C@@H]3CCC4=CC(=O)CC[C@@H]4[C@H]3CC[C@@]21C` [Norethindrone] the “Ratio (90% CI) AUC, co-administration” value [1, 13] was 0.88 and the “Ratio (90% CI) Cmax, co-administration” value [1, 13] was 0.95.
